Assays:
[1] = tested on: LPC lesions of MBP-deficient shiverer spinal cords transplanted with human iPSC-derived oligodendrocytes; assay: Remyelination in LPC lesions of shiverer spinal cords grafted with hiOLs; format: in vivo, mouse; conditions: gavage during 8 or 10 wkpg
Text: FIG. 48. In vivo results of Bavisant treatment on remyelination in LPC lesions of MBP-deficient shiverer spinal cords transplanted with human iPSC-derived oligodendrocytes. […] Exogenous myelin is detected by MBP and endogenous myelin by MOG.

[2] = tested on: primary human A2B5+ pre-oligodendrocytes; assay: Ensheathment by primary human A2B5+ oligodendrocyte lineage cells; format: cell-based; conditions: for percentage of ensheathed O4+ cells: human adult A2B5+ cells, 14 days
Procedure: FIG. 49. […] The experiments were conducted using primary human oligodendrocyte lineage cells obtained from surgically derived tissue specimens. Specimens were derived either from adults or pediatric age groups. […] Percentages of ensheathed O4+ cells were calculated by the total ensheathed O4+ cells out of total O4+ cells. HA-human adult, HP-human pediatric. *p<0.05.

[3] = tested on: LPC-induced demyelinated lesions of the mouse spinal cord; assay: LPC model of focal demyelination of the mouse spinal cord; format: in vivo
S1R (Sigma 1 Receptor) = target: T1, S1R (Sigma 1 Receptor) (Rattus norvegicus, UniProt Q9R0C9); assay: CETSA target engagement in CG-4 cell lysates; format: binding; conditions: 100 μM, 15 minutes, 52-77° C.
T1 construct: endogenous in cells; host or cells: CG-4 oligodendrocyte cell line (rat), lysate
Procedure: FIG. 32. […] Samples were heated at increasing temperatures (52-77° C.) and the soluble fractions were subjected to western blot. […] The immunoblot is representative of 4 biological replicates. Band quantification was performed by ImageJ software and the signal intensity of the thermostable protein was normalized to the respective intensity at 52° C. Protein amount at the other temperatures is represented as % of protein at 52° C. Data are means±the standard error of biological quadruplicates measurements and their statistical significance was evaluated by the Student's t-test (*** p<0.001; **p<0.01; *p<0.05).

[4] = tested on: mouse cortical and striatal neurons; assay: Morphological integrity evaluation, NMDA 20 μM; format: cell-based; conditions: 1 μM, 24 h pre-treatment, NMDA 20 μM 24 h
Procedure: Morphological integrity evaluation. Mouse cortical and striatal neurons (14 DIV) cultured in MW96 plates were exposed to 1 uM to 60 uM concentrations of NMDA and relationship between the NMDA dose and fiber length was evaluated. […] Each of the compound was tested in quadruplicate. The fiber length was evaluated by MAP2 staining (please see the method described earlier).
42 compounds were screened to evaluate the morphological integrity of cortical and striatal neurons upon chronic (24 h) NMDA exposure at concentration of 20 μM with compounds pre-treatment (24 h) in preventive regimen (FIG. 17).

[5] = tested on: iPSC-derived neurons (DIV45); conditions: human
Procedure: This protocol was modified from Yuchen Qi et al.^32 First, neural progenitors (NPCs) were generated from hiPSCs by dual-SMAD inhibition. Shortly, at day 0 iPSC colonies (confluent at 70-80%) were washed with PBS Dulbecco's w/o Calcium w/o Magnesium (Euroclone) and hiPSCs' maintenance medium (mTeSR™, StemCell Technologies) was replaced with neural induction medium composed by DMEM/F12 plus N2 medium (1×), B27 without RA supplement (0.5×) (Life Technology), added with SB431542 (10 μM) and LDN (500 nM). This medium was kept until day 4 (“induction”). At day 4, cells were splitted (1:3) with the same induction medium using Accutase®/Accumax™ (StemCell Technologies) dissociated solution. Entire medium was replaced daily up to days 14-16 until rosette formation was observed (“patterning”). At days 14-16, cells were detached by Accutase®/Accumax™ and re-plated on polyornitine/laminin/fibronectin coated MW96 or MW24 plates for terminal differentiation in Neurobasal medium supplemented with B27 (0.5×), BDNF (20 ng/ml), dbcAMP (500 μM), ascorbic acid (200 μM), PD0325901 (1 μM), SU5402 (5 μM), CHIR (3 μM), human recombinant insulin (5 μg/ml), supplemented with RI (Rock inhibitor) (1:3000) to reduce dissociation induced apoptosis. The half of differentiation medium was changed every 3-4 days, supplemented with 1 μg/ml laminin and DAPT (1-2 μM) until terminal maturation of neuronal population (MAP2+ cells). Cultures were characterized by immunocytochemistry and qRT-PCR and neuroprotective experiments were performed on days 30-40 of differentiation.
Evaluation of cytotoxicity of 160 selected compounds on iPSC-derived neurons (DIV45).

mouse cortical neurons = assay: Morphological integrity evaluation, NMDA 8 μM (MAP2 neurite length and branching); format: cell-based; conditions: 3 h pre-treatment, NMDA 8 μM 24 h; Z>0.5 criteria
Outline: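 Mouse cortical neurons (14 DIV) pre-treated 3 h with compounds, then exposed 24 h to 8 μM NMDA; fixed, MAP2 immunostained with DAPI. Total neurite length and non-trunk branch number from 15 images/well, triplicates, converted to plate-based Z-scores; NAC positive, staurosporine and NMDA negative controls.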

[6] = 30 mg/kg daily oral gavage, 14 dpi

T1 sequence (Q9R0C9 whole entry): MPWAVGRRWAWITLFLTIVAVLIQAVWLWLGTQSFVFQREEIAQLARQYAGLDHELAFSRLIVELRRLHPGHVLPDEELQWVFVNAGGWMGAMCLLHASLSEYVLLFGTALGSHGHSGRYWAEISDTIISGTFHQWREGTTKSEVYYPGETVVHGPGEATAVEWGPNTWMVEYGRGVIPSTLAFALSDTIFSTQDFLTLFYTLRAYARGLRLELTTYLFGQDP

Structure (SMILES) | toxicity on dissociated cultures [2] | percentage of ensheathed O4+ cells [2] | morphological integrity (neurite length) of cortical and striatal neurons [4] | viability compared to DMSO [5] | further results
O=C(c1ccc(CN2CCOCC2)cc1)N1CCN(C2CC2)CC1 [Bavisant] | No evidence of toxicity | promote ensheathment of adult brain derived A2B5+ cells |  |  | remyelination potential of grafted hiOLs (MBP) [1]: has the tendency to promote the remyelination potential of hiOLs; density of Olig2+CC1+ differentiated oligodendrocytes in LPC lesions ([3]; 30 mg/kg daily oral gavage, 5 to 14 dpi, readout 14 dpi): significantly increased the density of mature oligodendrocytes; % of remyelinated axons in the lesion [3, 6]: significantly increased the number of remyelinated axons; axonal density in LPC lesions [3, 6]: not changes; G-ratio ([3]; control vs treated, p<0.0001): enhances remyelination in vivo; thermostability of S1R (CETSA, western blot) (S1R (Sigma 1 Receptor)): thermostability of S1R in the presence of Bavisant
CC(=O)N1CCN([C@H]2CCN(C(=O)N(C)[C@H](C)c3cc(C(F)(F)F)cc(C(F)(F)F)c3)[C@@H](c3ccc(F)cc3C)C2)CC1 [Casopitant] | No evidence of toxicity | promote ensheathment of adult brain derived A2B5+ cells | selected for confirmation | 65-80% | 
NCCCC[C@H](NC(=O)[C@@H](Cc1cc(Br)c(O)c(Br)c1)NC(=O)N1CCC(N2Cc3ccccc3NC2=O)CC1)C(=O)N1CCN(c2ccncc2)CC1 [Olcegepant] |  |  | selected for confirmation |  | preservation of neurite length and network integrity (branching) (mouse cortical neurons): preserved both neurite length and the network integrity (branching)
O=C(NOC[C@H](O)CO)c1ccc(F)c(F)c1Nc1ccc(I)cc1F [PD-0325901] |  |  |  | 65-80% | 

Source: patent publication US20240148745A1, “COMPOUNDS FOR USE IN PROGRESSIVE MULTIPLE SCLEROSIS” (FONDAZIONE CENTRO SAN RAFFAELE, priority 2021, published 2024)
